Entries after “also recorded” stand apart in the source; their conditions may differ.

In one assay the target is T1, Nk3R (Mus musculus, UniProt P47937).
T1 sequence (P47937 1-452): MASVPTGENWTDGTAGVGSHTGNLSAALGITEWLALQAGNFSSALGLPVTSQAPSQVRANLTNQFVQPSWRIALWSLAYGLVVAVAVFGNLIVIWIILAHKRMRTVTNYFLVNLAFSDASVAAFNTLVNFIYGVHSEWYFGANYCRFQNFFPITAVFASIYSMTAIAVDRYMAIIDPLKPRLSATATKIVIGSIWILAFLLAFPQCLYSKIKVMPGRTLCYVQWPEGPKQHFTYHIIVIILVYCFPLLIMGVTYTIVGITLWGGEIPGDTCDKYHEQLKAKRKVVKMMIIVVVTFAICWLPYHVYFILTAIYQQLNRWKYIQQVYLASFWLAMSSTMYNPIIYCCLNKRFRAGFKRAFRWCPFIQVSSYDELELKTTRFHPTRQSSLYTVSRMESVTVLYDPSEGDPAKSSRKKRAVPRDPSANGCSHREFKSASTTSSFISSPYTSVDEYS
As to the kind of experiment: Tone fear conditioning test (freezing to conditioned tone), osanetant. Type of assay: in vivo. Particulars: osanetant daily during two-week isolation, tested off-drug. Also noted: from tissue; host or cells: Living mice (wild-type C57Bl6/N males, Charles River).

For assay [1], the target named is T2, hM4DREADD in Tac2+ neurons (Homo sapiens, UniProt P08173, A203G/Y113C).
T2 construct: host or cells: Tac2+ neurons of Tac2-Cre mice (dBNSTa, DMH or CeA), transduced in vivo with AAV2-EF1a-DIO-hM4D-mCherry
T2 sequence (P08173 1-479 Y113C/A203G): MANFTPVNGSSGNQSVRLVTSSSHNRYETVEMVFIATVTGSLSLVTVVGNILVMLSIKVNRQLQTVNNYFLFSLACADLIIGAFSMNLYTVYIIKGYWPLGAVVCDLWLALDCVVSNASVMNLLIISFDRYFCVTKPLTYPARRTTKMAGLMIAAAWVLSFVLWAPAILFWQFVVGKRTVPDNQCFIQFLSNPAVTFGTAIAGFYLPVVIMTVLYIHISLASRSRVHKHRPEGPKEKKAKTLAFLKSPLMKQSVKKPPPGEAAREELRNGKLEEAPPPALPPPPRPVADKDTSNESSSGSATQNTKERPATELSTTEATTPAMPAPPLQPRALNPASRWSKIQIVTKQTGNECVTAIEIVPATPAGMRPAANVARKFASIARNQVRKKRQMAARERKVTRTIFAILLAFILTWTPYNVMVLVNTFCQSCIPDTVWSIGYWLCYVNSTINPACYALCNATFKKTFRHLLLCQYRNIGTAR
Put plainly: Resident intruder assay, CNO silencing of Tac2+ neurons (hM4DREADD). Type of assay: in vivo, mouse. Particulars: SIS Tac2-Cre mice, hM4DREADD in DMH; CNO 5 mg/kg i.p. How it is done:
Testing for aggression using the resident intruder assay (Blanchard et al., 2003; incorporated by reference in its entirety) was performed as previously described (Hong et al., 2015; Hong et al., 2014; Lee et al., 2014; incorporated by reference in their entirety). Briefly, experimental mice (“residents”) were transported in their homecage to a novel behavior testing room (cagemates in group housed mice were removed from the homecage prior to transport for this and all other behavioral tests), where they acclimated for 5-15 minutes. Homecages were then slotted into a customized behavioral chamber lit with a surround panel of infrared lights and equipped with two synchronized infrared video cameras (Pointgrey) placed at 90-degree angles from each other to allow for simultaneous behavior recording with a front and top view. Synchronized video was acquired using Hunter 4.0 software (custom, Pietro Perona lab, Caltech). […] Fighting bouts were scored on a frame-by-frame basis and were defined as a frame during which the resident male was engaged in an episode of biting or intense aggressive behavior immediately surrounding a biting episode. Annotation files were then batch analyzed for behavior, including number of fighting bouts, using in-house customized programs in MATLAB (A. Kennedy, Caltech). […]

As for `CC(=O)N(C)C1(c2ccccc2)CCN(CCC[C@]2(c3ccc(Cl)c(Cl)c3)CCCN(C(=O)c3ccccc3)C2)CC1` [osanetant, N-(1-{3-[(3R)-1-benzoyl-3-(3,4-dichlorophenyl)piperidin-3-yl]propyl}-4-phenylpiperidin-4-yl)-N-methylacetamide], the “persistent freezing to fear conditioned tone” value on Nk3R is “prevented”.
As for `C[N+]1([O-])CCN(C2=Nc3cc(Cl)ccc3Nc3ccccc32)CC1` [CNO, clozapine-N-oxide], the aggression entry in assay [1] is on record as “blocked; also recorded: inhibited”.

Source of the values: patent publication US12083109B2, “Neurokinin antagonists and uses thereof” (California Institute of Technology, priority 2017, dated 2024).
